Data reported in paper PMC11990670, “Exploring the Volatility, Phase Transitions, and Solubility Properties of Five Halogenated Benzaldehydes” (Molecules, 2025).
Values after ≈ are worked out from the molar mass of the structure shown. Marks after values point to notes of the source that are not given here.

Experiments:
[1] = Equilibrium solubility in water, saturation shake-flask method with UV-vis; settings: 25 °C, thermodynamic from solid
Procedure: (§1) The concentration was measured by absorbances at 260 nm for 4-chlorobenzaldehyde, 263 nm for 4-bromobenzaldehyde and 2,4-dichlorobenzaldehyde, 297 nm for 2,6-dichlorobenzaldehyde, and 306 nm for 2,3-dichlorobenzaldehyde, using a Cary-60 UV–vis (Agilent) spectrophotometer. X-ray diffraction (XRD) and differential scanning calorimetry of residual solids were used to identify the eventual phase transformations. The purified samples of each compound studied were used for all experimental determinations, including the solubility measurements. After reaching the equilibrium, the residual solid was dried and analyzed using both DSC and XRD. The melting properties obtained from DSC were compared with those of the original purified sample, following the same procedure for the XRD analysis. […] As an example, the supporting information includes two thermograms and two XRD patterns for 2,4-dichlorobenzaldehyde (Figures S1 and S2). […] Equation (4) was derived from Equation (5), which is widely applicable to the solubility of solids.(4) ΔhydrGm°/kJ·mol^−1=9.17−5.71·log10(Scr/mol·m^−3)−ΔcrgGm°/kJ·mol^−1 (5) S=p^°/RTexpΔcrgGm°+ΔhydrGm°/−RT
(§2) An excess amount of each compound was added to a known volume of water in triplicate. […] After stirring, the solid phase was allowed to settle for 2 h. The pH of the saturated solutions was measured using a Mettler Toledo (Greifensee, Switzerland) FiveEasy F20 pH Meter calibrated with standard aqueous solutions (pH 7.00 and 4.01 or 10.1). Those solutions were then filtered through a 0.22 μm syringe hydrophilic filter (13 mm, PTFE, Labfil, Zhejiang, China) and diluted to the required concentration. The concentration of the compounds, expressed in molarity, was measured by absorbances using a Cary-60 UV–vis spectrophotometer (Agilent Technologies, Santa Clara, CA, USA) at 298.15 K (single cell Peltier accessory, ±0.15 K). The results reported in Table 6 are averaged from at least three replicates. Calibration was performed using solutions of known concentrations of each substance in water. These solutions were prepared by adding a precise mass of the substance and a specific volume of the solvent to a flask, then mixing until the substance was fully dissolved. The absorbance of these solutions was measured, and calibration curves were created.

[2] = pH of the saturated aqueous solutions; assay type: physicochemical; settings: saturated aqueous solution of the solubility experiment
Procedure: as §1, §2

[3] = Vapor pressures of crystalline and liquid phases, static method with capacitance diaphragm gauge; assay type: physicochemical
Description: A previously described and tested static apparatus was used to measure the vapor pressures of the condensed phases (both crystalline and liquid) of the five compounds studied. This installation employs MKS capacitance diaphragm absolute gauges, operating at self-regulated constant temperatures. Our lab is equipped with three pressure gauges. Gauge I, a Baratron 631A01TBEH (MKS instruments, Andover, MA, USA) (Tgauge = 423 K), measures pressures in the range of 0.5 to 1.3 × 10^2 Pa and operates within a temperature range of 253 to 413 K. Gauge II, the instrument used in this study, is a Baratron 631A11TBFP (MKS instruments, Andover, MA, USA) (Tgauge = 473 K), capable of measuring pressures from 0.5 to 1.3 × 10^3 Pa within a temperature range of 253 to 433 K and gauge III, a Baratron 631D02T8FP (MKS instruments, Andover, MA, USA) (Tgauge = 473 K), designed to measure pressures between 0.5 Pa and 2.6 × 10^2 Pa, also within a temperature range of 253 to 433 K. The temperatures of the samples were measured using a Pt100 platinum resistance thermometer, calibrated by comparison with a standard platinum resistance thermometer (SPRT: Tinsley Precision Instruments Ltd, London, England). To prevent vapor condensation, the tubing connecting the cell containing the condensed sample to the pressure gauge is maintained at a temperature higher than that of the sample but lower than that of the gauge. The uncertainty in temperature measurements is estimated to be u(T/K) = ±0.01, and the expanded uncertainties (0.95 confidence level, k = 2) in pressure measurements are given by the expression U(p/Pa) = 0.1 + 0.0050 (p/Pa) for the gauge used. Samples were thoroughly degassed before starting the vapor pressure measurements, ensuring consistent readings at specific temperatures and eliminating any residual volatile substances, including water.

[4] = Gibbs energy of hydration and Henry's law volatility constant calculated from sublimation and solubility data; settings: 25 °C; for Gibbs energy of hydration ΔhydrGm°: calculated by Equation (4); for log10(KHpc/kPa·m^3·mol^−1) Henry's law volatility constant: calculated by Equation (6); for KHpc×10^3 Henry's law volatility constant: value is KHpc multiplied by 10^3
Procedure: as §1
The standard states in Equation (5) are p° = 1 × 10^5 Pa for ΔcrgGm° , c° = 1 mol·L^−1 for ΔhydrGm° and s° = 1 mol·m^−3 for solubility. Using the experimental results of ΔhydrGm° , calculated through Equation (4), the values of Henry’s law volatility constants, KHpc, were determined in the logarithm form by Equation (6), that was adapted from Modarressi et al..

O=Cc1c(Cl)cccc1Cl [2,6-Dichlorobenzaldehyde]
solubility at 72 h [1]: 1130 µM (≈ 197 µg/mL) | pH of the saturated solution [2]: 6.39 | vapor pressure p ([3]; crystalline phase, T = 292.72 K): 0.50 Pa | vapor pressure p ([3]; crystalline phase, T = 294.67 K): 0.63 Pa | vapor pressure p ([3]; crystalline phase, T = 296.72 K): 0.81 Pa | vapor pressure p ([3]; crystalline phase, T = 298.56 K): 1.00 Pa | vapor pressure p ([3]; crystalline phase, T = 300.60 K): 1.28 Pa | vapor pressure p ([3]; crystalline phase, T = 302.53 K): 1.58 Pa | vapor pressure p ([3]; crystalline phase, T = 304.58 K): 1.97 Pa | vapor pressure p ([3]; crystalline phase, T = 306.53 K): 2.49 Pa | vapor pressure p ([3]; crystalline phase, T = 308.53 K): 3.07 Pa | vapor pressure p ([3]; crystalline phase, T = 310.48 K): 3.74 Pa | vapor pressure p ([3]; crystalline phase, T = 312.49 K): 4.61 Pa | vapor pressure p ([3]; crystalline phase, T = 314.41 K): 5.68 Pa | vapor pressure p ([3]; crystalline phase, T = 316.45 K): 7.02 Pa | vapor pressure p ([3]; crystalline phase, T = 318.40 K): 8.62 Pa | vapor pressure p ([3]; crystalline phase, T = 320.45 K): 10.52 Pa | vapor pressure p ([3]; crystalline phase, T = 322.40 K): 12.77 Pa | vapor pressure p ([3]; crystalline phase, T = 324.42 K): 15.66 Pa | vapor pressure p ([3]; crystalline phase, T = 326.34 K): 18.87 Pa | vapor pressure p ([3]; crystalline phase, T = 328.34 K): 22.67 Pa | vapor pressure p ([3]; crystalline phase, T = 330.30 K): 27.33 Pa | vapor pressure p ([3]; crystalline phase, T = 332.29 K): 32.89 Pa | vapor pressure p ([3]; crystalline phase, T = 334.27 K): 39.51 Pa | vapor pressure p ([3]; crystalline phase, T = 336.23 K): 46.91 Pa | vapor pressure p ([3]; crystalline phase, T = 338.20 K): 56.28 Pa | vapor pressure p ([3]; liquid phase, T = 344.17 K): 91.46 Pa | vapor pressure p ([3]; liquid phase, T = 346.13 K): 103.7 Pa | vapor pressure p ([3]; liquid phase, T = 348.09 K): 118.4 Pa | vapor pressure p ([3]; liquid phase, T = 350.07 K): 133.6 Pa | vapor pressure p ([3]; liquid phase, T = 352.10 K): 151.3 Pa | vapor pressure p ([3]; liquid phase, T = 354.09 K): 168.0 Pa | vapor pressure p ([3]; liquid phase, T = 356.04 K): 190.2 Pa | vapor pressure p ([3]; liquid phase, T = 358.03 K): 212.4 Pa | vapor pressure p ([3]; liquid phase, T = 359.98 K): 239.9 Pa | vapor pressure p ([3]; liquid phase, T = 361.98 K): 266.2 Pa | vapor pressure p ([3]; liquid phase, T = 363.92 K): 297.7 Pa | vapor pressure p ([3]; liquid phase, T = 365.92 K): 333.0 Pa | vapor pressure p ([3]; liquid phase, T = 367.87 K): 372.6 Pa | vapor pressure p ([3]; liquid phase, T = 369.87 K): 415.4 Pa | vapor pressure p ([3]; liquid phase, T = 371.82 K): 456.8 Pa | vapor pressure p ([3]; liquid phase, T = 373.82 K): 506.8 Pa | vapor pressure p ([3]; liquid phase, T = 375.77 K): 559.6 Pa | vapor pressure p ([3]; liquid phase, T = 377.79 K): 620.3 Pa | vapor pressure p ([3]; liquid phase, T = 379.71 K): 682.3 Pa | vapor pressure p ([3]; liquid phase, T = 381.71 K): 755.4 Pa | vapor pressure p ([3]; liquid phase, T = 383.62 K): 827.1 Pa | vapor pressure p ([3]; supercooled liquid, T = 334.28 K): 48.38 ^d Pa | vapor pressure p ([3]; supercooled liquid, T = 335.87 K): 53.45 ^d Pa | vapor pressure p ([3]; supercooled liquid, T = 338.22 K): 62.48 ^d Pa | vapor pressure p ([3]; supercooled liquid, T = 340.16 K): 71.24 ^d Pa | vapor pressure p ([3]; supercooled liquid, T = 342.24 K): 81.73 ^d Pa | Gibbs energy of hydration ΔhydrGm° [4]: -19.8 kJ/mol | log10(KHpc/kPa·m^3·mol^−1) Henry's law volatility constant [4]: −3.07 | KHpc×10^3 Henry's law volatility constant [4]: 0.851 kPa·m^3·mol^−1

O=Cc1ccc(Br)cc1 [4-Bromobenzaldehyde]
solubility at 72 h [1]: 3710 µM (≈ 687 µg/mL) | pH of the saturated solution [2]: 6.82 | vapor pressure p ([3]; crystalline phase, T = 283.09 K): 0.83 Pa | vapor pressure p ([3]; crystalline phase, T = 285.23 K): 1.07 Pa | vapor pressure p ([3]; crystalline phase, T = 287.05 K): 1.33 Pa | vapor pressure p ([3]; crystalline phase, T = 289.17 K): 1.71 Pa | vapor pressure p ([3]; crystalline phase, T = 291.17 K): 2.13 Pa | vapor pressure p ([3]; crystalline phase, T = 292.95 K): 2.63 Pa | vapor pressure p ([3]; crystalline phase, T = 295.00 K): 3.25 Pa | vapor pressure p ([3]; crystalline phase, T = 297.08 K): 4.12 Pa | vapor pressure p ([3]; crystalline phase, T = 298.95 K): 4.98 Pa | vapor pressure p ([3]; crystalline phase, T = 301.06 K): 6.27 Pa | vapor pressure p ([3]; crystalline phase, T = 302.93 K): 7.60 Pa | vapor pressure p ([3]; crystalline phase, T = 304.86 K): 9.21 Pa | vapor pressure p ([3]; crystalline phase, T = 306.87 K): 11.43 Pa | vapor pressure p ([3]; crystalline phase, T = 308.76 K): 13.82 Pa | vapor pressure p ([3]; crystalline phase, T = 310.84 K): 17.02 Pa | vapor pressure p ([3]; crystalline phase, T = 312.78 K): 20.28 Pa | vapor pressure p ([3]; crystalline phase, T = 314.77 K): 24.88 Pa | vapor pressure p ([3]; crystalline phase, T = 316.79 K): 29.92 Pa | vapor pressure p ([3]; crystalline phase, T = 318.78 K): 36.33 Pa | vapor pressure p ([3]; crystalline phase, T = 320.66 K): 43.34 Pa | vapor pressure p ([3]; crystalline phase, T = 322.62 K): 51.66 Pa | vapor pressure p ([3]; crystalline phase, T = 324.68 K): 61.49 Pa | vapor pressure p ([3]; liquid phase, T = 330.60 K): 103.9 Pa | vapor pressure p ([3]; liquid phase, T = 332.51 K): 117.8 Pa | vapor pressure p ([3]; liquid phase, T = 334.45 K): 131.9 Pa | vapor pressure p ([3]; liquid phase, T = 336.48 K): 148.9 Pa | vapor pressure p ([3]; liquid phase, T = 338.43 K): 168.4 Pa | vapor pressure p ([3]; liquid phase, T = 340.46 K): 189.9 Pa | vapor pressure p ([3]; liquid phase, T = 342.44 K): 213.5 Pa | vapor pressure p ([3]; liquid phase, T = 344.41 K): 240.4 Pa | vapor pressure p ([3]; liquid phase, T = 346.34 K): 266.7 Pa | vapor pressure p ([3]; liquid phase, T = 348.34 K): 300.1 Pa | vapor pressure p ([3]; liquid phase, T = 350.32 K): 333.2 Pa | vapor pressure p ([3]; liquid phase, T = 352.34 K): 375.3 Pa | vapor pressure p ([3]; liquid phase, T = 354.27 K): 418.5 Pa | vapor pressure p ([3]; liquid phase, T = 356.26 K): 463.6 Pa | vapor pressure p ([3]; liquid phase, T = 358.21 K): 513.4 Pa | vapor pressure p ([3]; liquid phase, T = 360.13 K): 573.1 Pa | vapor pressure p ([3]; liquid phase, T = 362.14 K): 628.6 Pa | vapor pressure p ([3]; liquid phase, T = 364.12 K): 701.8 Pa | vapor pressure p ([3]; liquid phase, T = 366.10 K): 775.8 Pa | vapor pressure p ([3]; liquid phase, T = 368.08 K): 860.4 Pa | vapor pressure p ([3]; liquid phase, T = 370.05 K): 946.6 Pa | vapor pressure p ([3]; liquid phase, T = 371.99 K): 1026 Pa | vapor pressure p ([3]; liquid phase, T = 373.98 K): 1147 Pa | vapor pressure p ([3]; supercooled liquid, T = 316.76 K): 39.76 ^d Pa | vapor pressure p ([3]; supercooled liquid, T = 318.77 K): 46.26 ^d Pa | vapor pressure p ([3]; supercooled liquid, T = 320.73 K): 53.22 ^d Pa | vapor pressure p ([3]; supercooled liquid, T = 322.70 K): 60.73 ^d Pa | vapor pressure p ([3]; supercooled liquid, T = 324.68 K): 69.79 ^d Pa | vapor pressure p ([3]; supercooled liquid, T = 326.64 K): 79.36 ^d Pa | vapor pressure p ([3]; supercooled liquid, T = 328.63 K): 90.64 ^d Pa | Gibbs energy of hydration ΔhydrGm° [4]: -18.8 kJ/mol | log10(KHpc/kPa·m^3·mol^−1) Henry's law volatility constant [4]: −2.90 | KHpc×10^3 Henry's law volatility constant [4]: 1.26 kPa·m^3·mol^−1
